Assay results as given in patent US20080287398A1, “COLD MENTHOL RECEPTOR-1 ANTAGONISTS” (priority 2007, published 2008).
“And” between values parts separate entries of the source, which are not always exact repeats. Equal values may be shown once. Read-outs that look alike come from different tables or passages of the source.

Tests used:
canine TRPM8 [1] = target: T1, canine TRPM8 (Canis lupus familiaris, UniProt Q1A7N1); assay: In vitro canine TRPM8 functional assay (Ca2+-sensitive dye, FLIPR/FDSS, icilin activation); assay type: cell-based; conditions: HEK293 cells expressing canine TRPM8, icilin activation; for % I (0.5 μM): 0.5 μM compound; for IC50: eight-point dose-response; for % I (1 μM): 1 μM compound
T1 construct: expressed in transfected cells
Procedure, shortened: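 Icilin challenge (final concentration producing ~80% of maximal response) followed a 5 min compound exposure in canine TRPM8-HEK293 cells dye-loaded with Calcium 3. Intracellular Ca2+ was read on FLIPR/FDSS. EC50 and IC50 values came from nonlinear sigmoidal dose-response fits of basal-subtracted, percent-of-maximum data averaged over quadruplicates.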

Sprague-Dawley rats = assay: CFA-induced paw radiant heat hypersensitivity; assay type: in vivo, rat; conditions: for inhibition in vivo at 30 mg/kg: read-out: % Reversal
Procedure: Intraplantar injection of Complete Freund's Adjuvant (CFA) in rodents results in a long-lasting inflammatory reaction, characterized by a pronounced hypersensitivity to both thermal and mechanical stimuli. This hypersensitivity peaks between 24-72 hours following injection and can last for several weeks. […] This paradigm also may be conducted with a multiple dosing or a prophylactic dosing regime designed to alter the course of hyperalgesia development. This test predicts the analgesic, anti-allodynic and antihyperalgesic effect of numerous effective clinical agents, including NSAIDS such as acetaminophen, aspirin and ibuprofen, and opioids such as morphine.
Each rat was placed in a test chamber on a warm glass surface and allowed to acclimate for approximately 10 minutes. A radiant thermal stimulus (beam of light) was then focused through the glass onto the plantar surface of each hind paw in turn. The thermal stimulus was automatically shut off by a photoelectric relay when the paw was moved or when the cut-off time was reached (20 seconds for radiant heat at ˜5 Amps). An initial (baseline) response latency to the thermal stimulus was recorded for each animal prior to the injection of CFA. Twenty-four hours following intraplantar CFA injection, the response latency of the animal to the thermal stimulus was then re-evaluated and compared to the animal's baseline response time. […] Immediately following the post-CFA latency assessment, test compound or vehicle (usually Solutol, hydroxypropyl methylcellulose, hydroxypropyl beta-cyclodextrin or PEG-400) was administered i.p. or p.o. to rats. […] The percent reversal (% R) of hypersenstivitiy was calculated according to the following formula:
% Reversal=(Treatment Response-CFA Response)/(Baseline Response-CFA Response)×100.

canine TRPM8 [2] = target: T1, canine TRPM8; assay: TRPM8 patch clamp assay (whole-cell, HEK293 cells); assay type: cell-based; conditions: HEK293 cells stably transfected with canine TRPM8, 100 μM menthol, 22° C.
Procedure: For patch clamp experiments, HEK293 cells stably transfected with canine TRPM8 were cultured in DMEM supplemented with 10% fetal bovine serum, 100 units/ml penicillin, 100 μg/ml streptomycin and 1 mg/ml G418. Cells were maintained at 37° C. and in 5% CO2.
The extracellular solution contained (in mM): NaCl, 132; EGTA, 1; KCl, 5.4; MgCl2, 0.8; HEPES, 10; glucose, 10; pH=7.4. Recordings were performed using the conventional whole-cell patch clamp technique, 1-2 days after plating cells onto glass coverslips at densities appropriate for single cell recording. Currents were amplified by a patch clamp amplifier and filtered at 2 kHz (Axopatch 200B, Molecular Devices, Union City, Calif.). Menthol (100 μM) was applied to the cell at 0.5 ml/min via a gravity-fed perfusion system. Recordings involving menthol activation were performed at 22° C.
In experiments where temperatures were varied, temperature ramps were generated by cooling the perfusate in an in-line cooler (Model SC-20, Warner Instruments, Hamden, Conn.) controlled by a temperature controller (Model CL-100, Warner Instruments). The temperature in the vicinity of the recorded cell was measured with a custom-made miniature thermo-microprobe connected to a monitoring thermometer (Model TH-8, Physitemp, Clifton, N.J.), and sampled using Digidata 1322A and pClamp 9.0 (Molecular Devices), as were the currents concurrently measured in the whole-cell patch clamp mode. The current was continuously sampled (at 100 Hz) at a holding potential of −60 mV.
Compounds were diluted from 10 mM DMSO stocks (stored at −20° C.) into an extracellular solution either containing 100 μM menthol or subjecting to cooling. Increasing concentrations of a compound were applied to a cell in a cumulative manner and concentration-dependent responses were measured after steady-state activation was achieved by either 100 μM menthol or cooling to 10° C. A saturating concentration of a reference antagonist was applied at the end of an experiment (either in the presence of 100 μM menthol or 10° C. temperature) to establish the baseline from which all the other measurements were subtracted.
Percentage inhibition by a compound was calculated as follows: 100×(1−Icomp/I0); where Icomp and I0 are steady-state current amplitudes in either the presence or absence of a concentration of the compound.

[3] = HEK293, read-out: % I (0.5 μM), 0.5 μM compound
[4] = rat, 30 mg/kg p.o., time 2 h (printed 2 h or 2)
[5] = HEK293, read-out: % I (1 μM), 1 μM compound

T1 sequence (Q1A7N1 1-1104): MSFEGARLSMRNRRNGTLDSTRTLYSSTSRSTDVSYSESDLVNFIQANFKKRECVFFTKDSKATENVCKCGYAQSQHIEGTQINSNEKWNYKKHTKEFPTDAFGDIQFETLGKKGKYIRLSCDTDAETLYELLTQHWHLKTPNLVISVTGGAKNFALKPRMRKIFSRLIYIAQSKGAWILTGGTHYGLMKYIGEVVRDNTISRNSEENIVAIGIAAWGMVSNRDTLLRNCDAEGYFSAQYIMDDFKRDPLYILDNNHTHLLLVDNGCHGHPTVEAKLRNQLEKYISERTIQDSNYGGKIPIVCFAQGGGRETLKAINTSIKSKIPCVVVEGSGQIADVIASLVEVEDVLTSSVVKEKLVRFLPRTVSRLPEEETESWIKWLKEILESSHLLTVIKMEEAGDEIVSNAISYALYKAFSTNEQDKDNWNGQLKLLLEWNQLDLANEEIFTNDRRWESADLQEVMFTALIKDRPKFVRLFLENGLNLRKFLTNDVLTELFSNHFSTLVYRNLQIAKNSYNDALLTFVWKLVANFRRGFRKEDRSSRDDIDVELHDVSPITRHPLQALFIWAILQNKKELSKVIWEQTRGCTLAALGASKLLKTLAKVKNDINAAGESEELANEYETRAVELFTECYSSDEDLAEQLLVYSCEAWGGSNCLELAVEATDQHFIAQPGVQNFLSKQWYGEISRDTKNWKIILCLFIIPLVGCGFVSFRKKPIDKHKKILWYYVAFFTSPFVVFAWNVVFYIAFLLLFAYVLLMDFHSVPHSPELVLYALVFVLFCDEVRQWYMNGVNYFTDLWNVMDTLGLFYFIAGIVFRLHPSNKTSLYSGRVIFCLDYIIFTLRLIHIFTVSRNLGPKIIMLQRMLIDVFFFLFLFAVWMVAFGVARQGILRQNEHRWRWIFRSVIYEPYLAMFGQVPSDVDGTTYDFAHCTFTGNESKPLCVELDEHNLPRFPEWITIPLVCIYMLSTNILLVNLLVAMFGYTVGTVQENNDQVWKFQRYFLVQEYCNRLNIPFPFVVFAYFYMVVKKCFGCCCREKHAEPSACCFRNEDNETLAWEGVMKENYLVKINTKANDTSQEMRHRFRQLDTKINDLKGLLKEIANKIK

**Q.** What does the source list for `CC(C)OP(=O)(OC(C)C)C(Cc1ccc(C(F)(F)F)cc1)c1sc2ccccc2c1Br` (stereo not shown) [Cpd 336]?
**A.** % I (0.5 μM) (canine TRPM8 [1]): 102%; IC50 (canine TRPM8 [1]; read-out: IC50): 0.043 µM; % Reversal (Sprague-Dawley rats; rat, 30 mg/kg p.o., time 1 h): 64%

**Q.** What does the source list for `CC(C)OP(=O)(OC(C)C)C(Cc1ccc(Cl)c(F)c1)c1sc2ccccc2c1Br` (stereo not shown) [Cpd 190]?
**A.** % I (0.5 μM) (canine TRPM8 [1]): 104%; IC50 (canine TRPM8 [1]; read-out: IC50): 0.102 µM; % Reversal (Sprague-Dawley rats; rat, 30 mg/kg p.o., time 1 h): 45%

**Q.** How did the inhibition at 0.5 µM (canine TRPM8 [1]; [3]) turn out when `CCOP(=O)(OCC)C(Cc1ccc(F)cc1)c1sc2ccccc2c1Br` (stereo not shown) [Cpd 238, [1-(3-Bromo-benzo[b]thiophen-2-yl)-2-(4-fluoro-phenyl)-ethyl]-phosphonic acid diethyl ester] was run?
**A.** 104%

**Q.** What about the IC50 (canine TRPM8 [1]; IC50 (μM)) of the same compound?
**A.** 0.044 µM

**Q.** What about the IC50 (canine TRPM8 [2]) of the same compound?
**A.** 0.53 nM

**Q.** And the inhibition in vivo at 30 mg/kg (Sprague-Dawley rats; Rattus norvegicus, po, 2 h)?
**A.** 56%

**Q.** How did the “% I (0.5 μM)” value (canine TRPM8 [1]) turn out when `CCOP(=O)(OCC)C(Cc1ccc(F)c(Cl)c1)c1sc2ccccc2c1Br` (racemic) [Cpd 244] was run?
**A.** 103%

**Q.** And the IC50 (canine TRPM8 [1]; read-out: IC50)?
**A.** 0.028 µM

**Q.** What about the “% Reversal” value (Sprague-Dawley rats; [4]) of the same compound?
**A.** 45%

**Q.** Which “% I (0.5 μM)” value (canine TRPM8 [1]) does the source give for `CCOP(=O)(OCC)C(Cc1ccc(F)c(C(F)(F)F)c1)c1sc2ccccc2c1Cl` (racemic) [Cpd 298] here?
**A.** 99%

**Q.** What about the IC50 (canine TRPM8 [1]; read-out: IC50) of the same compound?
**A.** 0.085 µM

**Q.** And the “% Reversal” value (Sprague-Dawley rats; rat, 30 mg/kg p.o., time 1 h)?
**A.** 20%

**Q.** Which inhibition at 0.5 µM (canine TRPM8 [1]; HEK293, 0.5 μM compound, read-out: % I (0.5 μM)) does the source give for `CC(C)OP(=O)(OC(C)C)C(Cc1ccc(F)c(C(F)(F)F)c1)c1sc2ccccc2c1Br` (stereo not shown) [Cpd 241, [1-(3-Bromo-benzo[b]thiophen-2-yl)-2-(4-fluoro-3-trifluoromethyl-phenyl)-ethyl]-phosphonic acid diisopropyl ester] here?
**A.** 102%

**Q.** What about the inhibition at 1 µM (canine TRPM8 [1]; HEK293, 1 μM compound, read-out: % I (1 μM)) of the same compound?
**A.** 103%

**Q.** And the IC50 (canine TRPM8 [1]; read-out: IC50)?
**A.** 0.038 µM

**Q.** What about the IC50 (canine TRPM8 [2]; IC50, mode of activation Menthol (100 μM)) of the same compound?
**A.** 1.6 nM

**Q.** And the inhibition in vivo at 30 mg/kg (Sprague-Dawley rats; po, rat, 30 mg/kg p.o., time 1 h)?
**A.** 72%

**Q.** For `CCOP(=O)(OCC)C(Cc1cccc(Cl)c1)c1sc2ccccc2c1Br` (stereo not shown) [Cpd 137, [1-(3-Bromo-benzo[b]thiophene-2-yl)2-(3-chloro-phenyl)-ethyl]-phosphonic acid diethyl ester], which inhibition at 0.5 µM (canine TRPM8 [1]; [3]) is on record?
**A.** 102%

**Q.** And the IC50 (canine TRPM8 [1]; IC50 (μM))?
**A.** 0.024 µM

**Q.** What about the inhibition in vivo at 30 mg/kg (Sprague-Dawley rats; Rattus norvegicus, po, 1 h) of the same compound?
**A.** 34%

**Q.** Which “% I (0.5 μM)” value (canine TRPM8 [1]) does the source give for `CC(C)OP(=O)(OC(C)C)C(Cc1ccc(F)cc1)c1sc2ccccc2c1Br` (stereo not shown) [Cpd 197] here?
**A.** 102%

**Q.** What about the “% I (1 μM)” value (canine TRPM8 [1]) of the same compound?
**A.** 100%

**Q.** What about the “% Reversal” value (Sprague-Dawley rats; [4]) of the same compound?
**A.** 23%

**Q.** Which results are given for `CCOP(=O)(OCC)C(Cc1ccc(SC)cc1)c1sc2ccccc2c1Cl` (racemic) [Cpd 299]?
**A.** % I (0.5 μM) (canine TRPM8 [1]): 101%; IC50 (canine TRPM8 [1]; read-out: IC50): 0.141 µM; % Reversal (Sprague-Dawley rats; rat, 30 mg/kg p.o., time 1 h): 23%

**Q.** Which inhibition at 1 µM (canine TRPM8 [1]; [5]) does the source give for `CC(C)OP(=O)(OC(C)C)C(Cc1ccc(F)c(F)c1)c1sc2ccccc2c1Cl` (stereo not shown) [Cpd 12, [1-(3-Chloro-benzo[b]thiophen-2-yl)-2-(3,4-difluoro-phenyl)-ethyl]-phosphonic acid diisopropyl ester] here?
**A.** 100%

**Q.** What about the IC50 (canine TRPM8 [1]; IC50 (μM)) of the same compound?
**A.** 0.043 µM and 0.13 µM

**Q.** What about the inhibition in vivo at 30 mg/kg (Sprague-Dawley rats; Rattus norvegicus, ip, 1 h) of the same compound?
**A.** 105%

**Q.** Which results are given for `CCOP(=O)(OCC)C(Cc1ccc(F)c(F)c1)c1sc2ccccc2c1Br` (stereo not shown) [Cpd 127, [1-(3-Bromo-benzo[b]thiophen-2-yl)-2-(3,4-difluoro-phenyl)-ethyl]-phosphonic acid dethyl ester]?
**A.** inhibition at 1 µM (canine TRPM8 [1]; [5]): 100%; IC50 (canine TRPM8 [1]; IC50 (μM)): 0.052 µM; ED50 (Sprague-Dawley rats; Rattus norvegicus, po): 5.2 mg/kg; inhibition in vivo at 30 mg/kg (Sprague-Dawley rats; Rattus norvegicus, po, 1 h): 88%; ED50 (Sprague-Dawley rats; Rattus norvegicus, po, 1 h, read-out: oral ED50): 5.2 mg/kg

**Q.** How did the “% I (0.5 μM)” value (canine TRPM8 [1]) turn out when `CC(C)OP(=O)(OC(C)C)C(Cc1cc(C(F)(F)F)ccc1F)c1sc2ccccc2c1Br` (stereo not shown) [Cpd 335] was run?
**A.** 102%

**Q.** And the IC50 (canine TRPM8 [1]; read-out: IC50)?
**A.** 0.035 µM

**Q.** What about the “% Reversal” value (Sprague-Dawley rats; rat, 30 mg/kg p.o., time 1 h) of the same compound?
**A.** 0%

**Q.** `CCOP(=O)(OCC)C(Cc1ccc(F)cc1Cl)c1cc2ccccc2s1` (stereo not shown) [Cpd 98] was tested. Which “% I (1 μM)” value (canine TRPM8 [1]) did it give?
**A.** 79%

**Q.** What about the IC50 (canine TRPM8 [1]; read-out: IC50) of the same compound?
**A.** 0.71 µM
